Read-outs that look alike come from different tables or passages of the source.
Experiments:
[1] = system: OCI-Ly19 cells; test: RT2 Glucocorticoid signaling PCR array, OCI-LY19 (Table 4a, printed OCT) cell line; format: cell-based; conditions: vs DMSO; for ΔΔCT, AFF1: gene AFF1; for ΔΔCT, AMPD3: gene AMPD3; for ΔΔCT, ANXA4: gene ANXA4; for ΔΔCT, CEBPA: gene CEBPA; for ΔΔCT, CREB1: gene CREB1; for ΔΔCT, CREB3: gene CREB3; for ΔΔCT, GHRHR: gene GHRHR; for ΔΔCT, GOT1: gene GOT1; for ΔΔCT, PER1: gene PER1; for ΔΔCT, RGS2: gene RGS2; for ΔΔCT, SPSB1: gene SPSB1; for ΔΔCT, TBL1XR1: gene TBL1XR1; for ΔΔCT, TNF: gene TNF; for ΔΔCT, VLDLR: gene VLDLR
Source text: (§1) Expression levels of (A). Sestrin; (B). TNF and (C) GILZ normalized to DMSO controls for each cell line with the indicated single agent or combination.

[2] = system: SU-DHL10 cells; test: RT2 Glucocorticoid signaling PCR array, SU-DHL10 (SUDHL10) cell line (Table 4d); format: cell-based; conditions: SUDHL10, 4 days, vs DMSO
Source text: as §1

[3] = system: RL cells; test: RT2 Glucocorticoid signaling PCR array, RL (Table 4e, printed RI) cell line; format: cell-based; conditions: 4 days, Cpd44 1 uM, Pred 10-fold below 4-day IC50, vs DMSO, B2M-normalized
Source text: as §1

[4] = system: SU-DHL4 cells; test: RT2 Glucocorticoid signaling PCR array, SU-DHL4 (SUDHL4) cell line (Table 4f); format: cell-based; conditions: SUDHL4, 4 days, vs DMSO
Source text: as §1

[5] = system: DOHH2 cells; conditions: DOHH2 (WT EZH2 GCB); drug combined with Compound 44
Protocol: (§2) After 3 days of co-treatment, cell viability was measured via ATP content using CellTiter-Glo®
(§3) Synergy quantification is performed using the Chou-Talalay method^3 for drug combination. The Combination Index (CI) equation offers a quantitative definition for additivity (CI=1), synergism (CI<1), and antagonism (CI>1). This equation used Fa values from a constant ratio of drug combination to determine CI values. […] These Fa-CI plots are generated using the Calcusyn software.
(§4) After 3 days of co-treatment (5 days for Toledo assays), cell viability was measured via ATP content using CellTiter-Glo® (Promega) and luminescence was detected using a SpectraMax M5 microplate reader (Molecular Devices).
as §3, with “Chou-Talalay method” for “Chou-Talalay method^3”, “drug combination (Ref 1).” for “drug combination.”, “used fractional effect (Fa)” for “used Fa”, “Calcusyn for Windows software (Ref2).” for “Calcusyn software.”
(§5) Dose responses were plotted using Graphpad Prism and either 50% or 60% inhibitory concentrations were interpolated from the dose response curves.

[6] = system: SU-DHL10 cells
Protocol: as §2, §3, §4
as §3, with “Chou-Talalay method” for “Chou-Talalay method^3”, “drug combination (Ref 1).” for “drug combination.”, “used fractional effect (Fa)” for “used Fa”, “Calcusyn for Windows software (Ref2).” for “Calcusyn software.”
as §5

[7] = system: Toledo cells; conditions: Toledo (WT EZH2 ABC); drug combined with Compound 44
Protocol: as §2, §3, §4
as §3, with “Chou-Talalay method” for “Chou-Talalay method^3”, “drug combination (Ref 1).” for “drug combination.”, “used fractional effect (Fa)” for “used Fa”, “Calcusyn for Windows software (Ref2).” for “Calcusyn software.”
as §5

[8] = system: WSU-DLCL2 cells
Protocol: as §2, §3, §4
as §3, with “Chou-Talalay method” for “Chou-Talalay method^3”, “drug combination (Ref 1).” for “drug combination.”, “used fractional effect (Fa)” for “used Fa”, “Calcusyn for Windows software (Ref2).” for “Calcusyn software.”
as §5

[9] = system: H3K27me3; conditions: 4 days
Protocol: Histones were extracted from tumor samples as described above. […] The plates were sealed and incubated overnight at 4° C. The following day, plates were washed 3× with 300 ul/well PBST (PBS+0.05% Tween 20; 10×PBST, KPL #51-14-02) on a Bio Tek plate washer. Plates were blocked with 300 ul/well of diluent (PBS+2% BSA+0.05% Tween 20), incubated at RT for 2 hours, and washed 3× with PBST. All antibodies were diluted in diluent. […] Plates were incubated for 90 min at RT and washed 3× with PBST. […] Plates were washed 4× with PBST. For detection, 100 ul/well of TMB substrate (BioFx Laboratories, #TMBS) was added and plates incubated in the dark at RT for 5 min. Reaction was stopped with 100 ul/well IN H2SO4 Absorbance at 450 nm was read on SpectaMax M5 Microplate reader.

[10] = system: H3K27 acetylation; conditions: WSU-DLCL2, OCI-LY19, RL cells; 4 days

CCN(c1cc(-c2ccc(CN3CCOCC3)cc2)cc(C(=O)NCc2c(C)cc(C)[nH]c2=O)c1C)C1CCOCC1 [Compound 44]
ΔΔCT, AFF1 [1]: −0.008 | ΔΔCT, AMPD3 [1]: −0.654 | ΔΔCT, ANXA4 [1]: −0.154 | ΔΔCT, CEBPA [1]: −2.891 | ΔΔCT, CREB1 [1]: 0.006 | ΔΔCT, CREB3 [1]: 0.057 | ΔΔCT, GHRHR [1]: −4.040 | ΔΔCT, GOT1 [1]: −0.084 | ΔΔCT, PER1 [1]: 0.674 | ΔΔCT, RGS2 [1]: −0.968 | ΔΔCT, SPSB1 [1]: −0.097 | ΔΔCT, TBL1XR1 [1]: −0.043 | ΔΔCT, TNF [1]: −0.600 | ΔΔCT, VLDLR [1]: −0.280 | ADARB1 ΔΔCT [2]: 0.073 | AK2 ΔΔCT [2]: −0.101 | ARIDS8 ΔΔCT [2]: 0.650 | ASPH ΔΔCT [2]: 0.296 | CEBPA ΔΔCT [2]: −1.026 | DDIT4 ΔΔCT [2]: 1.444 | H6PD ΔΔCT [2]: 1.221 | LOX ΔΔCT [2]: 1.164 | NR3C1 ΔΔCT [2]: 0.527 | PER2 ΔΔCT [2]: 0.441 | SPHK1 ΔΔCT [2]: 0.231 | STAT5B ΔΔCT [2]: 0.027 | TNF ΔΔCT [2]: −0.204 | VDR ΔΔCT [2]: −0.714 | ΔΔCT ([3]; AMPD3 mRNA): −0.885 | ΔΔCT ([3]; ASPH mRNA): 0.476 | ΔΔCT ([3]; BCL6 mRNA): 0.263 | ΔΔCT ([3]; FOSL2 mRNA): −1.274 | ΔΔCT ([3]; TSC22D3 mRNA): 0.189 | ΔΔCT ([3]; ZFP36 mRNA): −0.036 | ΔΔCT, BCL6 [4]: −1.019 | ΔΔCT, CEBPB [4]: 0.776 | ΔΔCT, DDIT4 [4]: −1.317 | ΔΔCT, DUSP1 [4]: −0.449 | ΔΔCT, NFKBIA [4]: −0.388 | ΔΔCT, PDP1 [4]: −0.911 | ΔΔCT, POU2F2 [4]: −0.539 | ΔΔCT, RASA3 [4]: −0.731 | ΔΔCT, SPHK1 [4]: −1.066 | ΔΔCT, STAT5A [4]: −0.587 | ΔΔCT, TNF [4]: −2.458 | ΔΔCT, VDR [4]: −2.155 | ΔΔCT, VLDLR [4]: 0.438 | ΔΔCT, ZNF281 [4]: −0.612

C[C@]12C=CC(=O)C=C1CC[C@@H]1[C@@H]2[C@@H](O)C[C@@]2(C)[C@H]1CC[C@]2(O)C(=O)CO [Prednisolone, prednisolone]
Summary of Combinations with Compound 44: potency enhanced [5]: potency enhanced 2x | Summary of Combinations with Compound 44: potency enhanced ([6]; SU-DHL 10 (EZH2 mutant GCB), drug combined with Compound 44): potency enhanced 3x | growth inhibition by the drug by itself ([6]; SU-DHL10, single agent): no sensitivity | Summary of Combinations with Compound 44 (combination effect) [7]: no effect | Summary of Combinations with Compound 44: potency enhanced ([8]; WSU-DLCL2 (EZH2 mutant GCB), drug combined with Compound 44): potency enhanced 7x | growth inhibition by the drug by itself ([8]; WSU-DLCL2, single agent): no sensitivity | effect on H3K27 trimethylation (H3K27me3) ([9]; OCI-LY19 cells, at higher doses): modest increase | effect on H3K27 trimethylation (H3K27me3) ([9]; RL cells): did not have any effect | effect on H3K27 trimethylation (H3K27me3) ([9]; WSU-DLCL2 cells): did not have any effect | ΔΔCT, AFF1 [1]: −0.304 | ΔΔCT, AMPD3 [1]: −0.109 | ΔΔCT, ANXA4 [1]: 0.189 | ΔΔCT, CEBPA [1]: 0.031 | ΔΔCT, CREB1 [1]: 0.060 | ΔΔCT, CREB3 [1]: −0.156 | ΔΔCT, GHRHR [1]: −2.603 | ΔΔCT, GOT1 [1]: 0.094 | ΔΔCT, PER1 [1]: 0.263 | ΔΔCT, RGS2 [1]: 0.390 | ΔΔCT, SPSB1 [1]: 0.387 | ΔΔCT, TBL1XR1 [1]: −0.234 | ΔΔCT, TNF [1]: −0.773 | ΔΔCT, VLDLR [1]: 0.081 | ADARB1 ΔΔCT [2]: 2.234 | AK2 ΔΔCT [2]: −0.345 | ARIDS8 ΔΔCT [2]: 1.603 | ASPH ΔΔCT [2]: 0.169 | CEBPA ΔΔCT [2]: 0.784 | DDIT4 ΔΔCT [2]: −1.212 | H6PD ΔΔCT [2]: 0.844 | LOX ΔΔCT [2]: −0.505 | NR3C1 ΔΔCT [2]: 0.256 | PER2 ΔΔCT [2]: −0.204 | SPHK1 ΔΔCT [2]: −0.279 | STAT5B ΔΔCT [2]: 0.719 | TNF ΔΔCT [2]: 0.221 | VDR ΔΔCT [2]: −0.245 | ΔΔCT ([3]; ATF4 mRNA): 1.364 | ΔΔCT ([3]; CREB3 mRNA): 0.762 | ΔΔCT ([3]; CYB561 mRNA): −1.663 | ΔΔCT ([3]; PIK3R1 mRNA): 0.974 | ΔΔCT ([3]; POU2F1 mRNA): 1.130 | ΔΔCT ([3]; SESN1 mRNA): −4.062 | ΔΔCT ([3]; SLC19A2 mRNA): 0.047 | ΔΔCT ([3]; ZHX3 mRNA): 0.168 | ΔΔCT, BCL6 [4]: −0.793 | ΔΔCT, CEBPB [4]: 0.528 | ΔΔCT, DDIT4 [4]: −1.931 | ΔΔCT, DUSP1 [4]: −1.093 | ΔΔCT, NFKBIA [4]: −0.710 | ΔΔCT, PDP1 [4]: −0.521 | ΔΔCT, POU2F2 [4]: −0.675 | ΔΔCT, RASA3 [4]: −0.723 | ΔΔCT, SPHK1 [4]: 0.331 | ΔΔCT, STAT5A [4]: −0.389 | ΔΔCT, TNF [4]: −2.845 | ΔΔCT, VDR [4]: −0.996 | ΔΔCT, VLDLR [4]: 1.191 | ΔΔCT, ZNF281 [4]: −0.739 | H3K27 acetylation levels [10]: not globally affected
